The target in one assay is CDK6/cyclin D3 (Homo sapiens, UniProt Q00534). The experiment in a line: Assay of kinase activity (ADP-Glo). Particulars: kinase inhibitory activity. Type of assay: biochemical. An outline of the steps:
(§1)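 Human CDK6/cyclin D3 and CDK9/cyclin T1 preincubated 10 min at 25 °C with compound in 50 mM Hepes, 10 mM MgCl2, 0.01% Brij35, 2 mM DTT, then reacted 60 min at 25 °C with substrate and ATP. ADP formed measured by ADP-Glo luminescence; IC50 from nonlinear concentration-response fitting.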
On the technique in general: ADP-Glo first removes unused ATP, then detects ADP through luciferase.

The target of a further assay is CDK9/cyclin T1 (Homo sapiens, UniProt P50750). The assay is described as follows: Assay of kinase activity (ADP-Glo). Type of assay: biochemical. Particulars: kinase inhibitory activity. In short, it runs like this:
as §1

The subject of assay [1] is human acute myeloid leukemia MV-4-11 cells. The experiment in a line: Assay of cell proliferation (CellTiter-Glo). Type of assay: cell-based. As to conditions: MV4-11, 144 h, 6 days, read-out: MV-4-11 IC50 of cell proliferation inhibitory activity. An outline of the steps: (§2)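 Cells seeded per line at growth-adapted densities, treated 6 days at 37 °C/5% CO2 with nine 3-fold dilutions (10 µM to 0.1 nM final, 0.5% DMSO). Viability by CellTiter-Glo luminescence; IC50 from four-parameter fit.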

Assay [2] concerns human breast cancer HCC1806 cells. The experiment in a line: Assay of cell proliferation (CellTiter-Glo). Type of assay: cell-based. As to conditions: Homo sapiens, 144 h, 6 days, read-out: HCC1806 IC50 of cell proliferation inhibitory activity. An outline of the steps: as §2
For assay [3], the system named is human breast cancer MCF-7 cells. The experiment in a line: Assay of cell proliferation (CellTiter-Glo). Type of assay: cell-based. Particulars: 144 h, MCF7 cells, 6 days, read-out: MCF7 IC50 of cell proliferation inhibitory activity. In short, it runs like this: as §2
The subject of assay [4] is human colon cancer HCT-116 cells. The assay is described as follows: Assay of cell proliferation (CellTiter-Glo). Type of assay: cell-based. Particulars: 144 h, 6 days, read-out: HCT-116 IC50 of cell proliferation inhibitory activity. In short, it runs like this:
as §2
A general note: Cellular ATP, detected with luciferase, serves as a proxy for viable cell number.

In assay [5] the test system is human gastric cancer MKN1 cells. The assay is described as follows: Assay of cell proliferation (CellTiter-Glo). The format is cell-based. As to conditions: Homo sapiens, MKN-1, 144 h; MNK1, 6 days; read-out: MKN1 IC50 of cell proliferation inhibitory activity. An outline of the steps:
as §2

Assay [6] deals with Human gastric cancer MKN1 cells. The experiment in a line: MKN1 tumor model. Particulars: female BALB/c nude mice, p.o. 10, 20 and 30 mg/kg once daily, 22 days, Fig. 4. Type of assay: in vivo. The procedure: Human gastric cancer MKN1 cells were cultured in RPMI 1640 medium containing 10% FBS at 37 °C and 5% CO2 in an incubator. Matrigel was mixed with serum-free RPMI 1640 medium at a ratio of 1:1, and then the mixture was used to resuspend the MKN1 cancer cells at 1 × 10^7 / 0.1 ml. Then, the cells were inoculated subcutaneously into the right rib area of female BALB/c nude mice. When the volume of tumors reached approximately 100-150 mm^3, the mice were randomly divided into groups for treatment, with six animals per group. The compound was prepared in a 20% aqueous solution of hydroxypropyl-gamma-cyclodextrin containing an equivalent amount of hydrochloric acid, and administered by oral gavage (p.o.) at dosages of 10, 20, and 30 (mg/kg) once daily, for a total of 22 days. The untreated group was given solvent by oral gavage. The tumor volume was measured twice a week using a vernier caliper by measuring the long and short diameters of a tumor. The formula for calculating a tumor volume was: volume (mm^3) = (long diameter (mm) × short diameter (mm) × short diameter (mm)/2. The mice were weighed daily.
The therapeutic effect of a drug was evaluated using the tumor growth inhibition (TGI%).

The values below come from patent EP4711369A1, “1H-[1,2,3]TRIAZOLO[4,5-H]QUINAZOLINE COMPOUNDS AS PROTEIN KINASE INHIBITORS” (Chengdu Cynogen Bio-Pharmaceutical Technology Co., Ltd., priority 2023, dated 2024).

Chain of CDK9/cyclin T1 (P50750 whole entry, species assumed): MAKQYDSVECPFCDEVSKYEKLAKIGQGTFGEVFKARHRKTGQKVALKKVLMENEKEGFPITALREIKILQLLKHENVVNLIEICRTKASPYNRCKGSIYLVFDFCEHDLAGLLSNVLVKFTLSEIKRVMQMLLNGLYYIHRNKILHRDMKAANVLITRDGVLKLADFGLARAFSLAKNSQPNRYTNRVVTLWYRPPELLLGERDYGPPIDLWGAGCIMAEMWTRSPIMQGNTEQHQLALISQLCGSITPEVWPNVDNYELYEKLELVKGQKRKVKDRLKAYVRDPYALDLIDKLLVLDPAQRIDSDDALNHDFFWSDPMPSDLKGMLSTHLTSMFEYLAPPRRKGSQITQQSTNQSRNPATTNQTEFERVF
Chain of CDK9/cyclin T1 (O60563 whole entry partner, species assumed): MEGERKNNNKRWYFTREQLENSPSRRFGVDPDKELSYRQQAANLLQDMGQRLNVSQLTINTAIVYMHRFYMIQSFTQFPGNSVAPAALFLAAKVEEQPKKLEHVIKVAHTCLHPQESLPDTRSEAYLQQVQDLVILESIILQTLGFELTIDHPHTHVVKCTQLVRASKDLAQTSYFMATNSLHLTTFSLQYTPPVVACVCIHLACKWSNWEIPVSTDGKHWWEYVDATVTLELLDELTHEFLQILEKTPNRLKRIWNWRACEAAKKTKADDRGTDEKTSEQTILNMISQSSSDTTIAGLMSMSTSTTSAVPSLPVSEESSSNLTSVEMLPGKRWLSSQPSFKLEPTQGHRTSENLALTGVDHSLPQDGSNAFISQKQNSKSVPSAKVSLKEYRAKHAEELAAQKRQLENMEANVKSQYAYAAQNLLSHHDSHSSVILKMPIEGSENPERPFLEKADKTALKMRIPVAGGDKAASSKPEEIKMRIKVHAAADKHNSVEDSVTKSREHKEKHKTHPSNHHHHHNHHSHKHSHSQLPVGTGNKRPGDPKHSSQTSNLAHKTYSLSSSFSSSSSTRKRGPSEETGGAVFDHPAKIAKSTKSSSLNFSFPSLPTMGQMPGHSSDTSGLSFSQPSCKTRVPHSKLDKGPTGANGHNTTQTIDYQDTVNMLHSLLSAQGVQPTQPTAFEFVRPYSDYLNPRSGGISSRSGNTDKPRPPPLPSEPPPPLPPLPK
Chain of CDK6/cyclin D3 (Q00534 whole entry, species assumed): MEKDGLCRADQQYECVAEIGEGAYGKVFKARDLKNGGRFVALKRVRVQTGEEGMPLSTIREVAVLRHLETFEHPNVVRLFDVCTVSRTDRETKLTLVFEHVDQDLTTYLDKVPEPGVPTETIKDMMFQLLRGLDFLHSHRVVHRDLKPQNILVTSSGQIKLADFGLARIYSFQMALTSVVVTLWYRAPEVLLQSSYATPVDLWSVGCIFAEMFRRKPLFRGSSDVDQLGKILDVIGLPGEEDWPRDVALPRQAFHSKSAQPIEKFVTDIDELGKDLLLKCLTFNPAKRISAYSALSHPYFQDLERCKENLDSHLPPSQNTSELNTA
Chain of CDK6/cyclin D3 (P30281 whole entry partner, species assumed): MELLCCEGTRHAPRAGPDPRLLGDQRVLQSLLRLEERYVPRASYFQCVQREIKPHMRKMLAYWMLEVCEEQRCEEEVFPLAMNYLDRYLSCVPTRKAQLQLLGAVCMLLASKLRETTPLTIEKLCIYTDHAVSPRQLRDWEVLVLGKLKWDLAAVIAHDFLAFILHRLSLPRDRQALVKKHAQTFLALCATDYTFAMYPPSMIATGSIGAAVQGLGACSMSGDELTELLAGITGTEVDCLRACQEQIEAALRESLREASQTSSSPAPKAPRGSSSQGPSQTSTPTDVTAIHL

Consider `CC(C)n1nnc2ccc3cnc(Nc4ccc(C(=O)N5CC[C@H](N(C)C)C5)cc4)nc3c21` [Example I-10, (S)-(3-(Dimethylamino)pyrrolidin-1-yl)(4-((1-isopropyl-1H-[1,2,3]triazolo[4,5-H]quinazolin-8-yl)amino)phenyl)metha none], for which the IC50 against CDK6/cyclin D3 was found to be 4 nM; against CDK9/cyclin T1 it was 2 nM; in assay [1], 4 nM; in assay [2], 22 nM; in assay [3], 11 nM; in assay [4], 11 nM. For the same molecule, the IC50 in assay [5] came to 15 nM. Besides, in assay [6], the “growth inhibitory effect on the MKN1 tumor model (TGI%)” value was “dose-dependent relationship”.
